Legend:
[1] = target: Human plasma kallikrein (Homo sapiens (Human), UniProt P03952); assay: Kallikrein Assay; type: biochemical; details: purified Human plasma kallikrein 0.5 nM, substrate Acetyl-K-P-R-AFC; read-out: P. KLK IC50
Procedure, shortened: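 Purified human plasma kallikrein (0.5 nM final) with Acetyl-K-P-R-AFC substrate ([…]) in pH 7.4 HEPES/NaCl/CaCl2/PEG buffer, room temperature or 37 °C; fluorescence rise read at 405/510 nm under linear conditions after enzyme–inhibitor equilibration. IC50 from four-parameter logistic fit; Ki via Cheng–Prusoff.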

[2] = Rat Pharmacokinetic Screening IV/PO; type: in vivo; details: male; for clearance: plasma clearance, IV administration; for MRT / bioavailability: plasma; for MRT: mean residence time; for bioavailability: oral bioavailability, oral vs. IV dosing
Procedure: Plasma pharmacokinetic parameters for clearance (Cl), volume of distribution, mean residence time (MRT) and oral bioavailability (% F) were determined in rats from oral administration and IV administration studies. 4 male rats, typically weighing 225-260 gram, were fasted overnight prior to dosing. Compounds were prepared for oral and IV dosing by addition to a vehicle, depending on the dose used. For a typical preparation, 1 mg per mL (IV) or 1.5 mg per mL (oral) of test compound was added to vehicle comprised of 20% dimethyl sulfoxide (DMSO), 60% polyethylene glycol 400 (PEG400) and 20% water. IV formulation was administered to 2 rats via pre-cannulated jugular vein, and oral dosing was administered to 2 rats via oral gavage. Blood was collected by pre-cannulated artery, typically at predose, 2, 8, 15, 30 min, 1, 2, 4, 6, and 8 hr postdose for IV, and at predose, 15, 30 min, 1, 2, 4, 6, 8 hr for oral dosing. Samples were collected in K2EDTA tubes, stored on ice, and centrifuged. Plasma was transferred to a micro titer plate and stored at −70° C. until analysis. Plasma samples were extracted using protein precipitation and analyzed by liquid chromatography separation followed by mass spec detection (LC-MS/MS), using a standard curve for each compound. Plasma pharmacokinetic parameters were calculated for IV and oral dosing data by non-compartmental methods. Oral bioavailability was determined as the ratio of the dose-normalized plasma area under the curve (AUC) following oral dosing vs. IV dosing.

[3] = target: human Factor XIa (Homo sapiens (Human), UniProt P03951); assay: Factor XIa Assay; type: biochemical; details: human Factor XIa 0.04 nM, 30 min pre-incubation at 25° C., substrate GPR-AFC; read-out: FXIa IC50
Procedure, shortened: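 IC50 values were obtained from four-parameter log(inhibitor)-response fits of % inhibition, then converted to Ki using Cheng-Prusoff. GPR-AFC hydrolysis was read at 400/505 nm after 60 min at 25 °C.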

[4] = test system: Human plasma (intrinsic coagulation cascade); assay: Activated Partial Thromboplastin Time (aPTT) Assay; details: concentration that causes a 50% (1.5×) increase of clot time over vehicle
Procedure, shortened: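 Inhibitors spiked into pooled citrated normal-donor human plasma (aPTT 28-40 seconds), run on automated coagulation analyzer: ellagic acid activation of Factor XII, then clot time after recalcification. Reported as concentration giving 50% (1.5×) prolongation over vehicle clot time.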

Sequence of human Factor XIa (P03951 388-625): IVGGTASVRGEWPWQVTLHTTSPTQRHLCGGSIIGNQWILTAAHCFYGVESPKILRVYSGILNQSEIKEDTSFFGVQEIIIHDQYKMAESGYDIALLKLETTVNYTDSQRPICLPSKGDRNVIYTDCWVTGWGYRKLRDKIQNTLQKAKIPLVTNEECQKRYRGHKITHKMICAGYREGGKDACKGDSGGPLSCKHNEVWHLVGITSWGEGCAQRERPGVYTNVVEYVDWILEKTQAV
Sequence of human Factor XIa (P03951 19-387 partner): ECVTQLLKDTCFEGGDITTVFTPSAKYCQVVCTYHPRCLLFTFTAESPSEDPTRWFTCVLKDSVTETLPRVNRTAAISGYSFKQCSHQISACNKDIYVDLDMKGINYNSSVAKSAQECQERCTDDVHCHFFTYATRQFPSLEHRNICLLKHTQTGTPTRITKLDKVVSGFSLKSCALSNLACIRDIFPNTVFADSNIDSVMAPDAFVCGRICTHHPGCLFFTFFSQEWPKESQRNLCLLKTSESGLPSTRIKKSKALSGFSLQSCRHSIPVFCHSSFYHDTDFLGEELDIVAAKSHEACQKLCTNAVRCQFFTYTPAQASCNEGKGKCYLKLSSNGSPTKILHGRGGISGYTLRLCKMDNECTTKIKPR
Sequence of Human plasma kallikrein (P03952 391-638): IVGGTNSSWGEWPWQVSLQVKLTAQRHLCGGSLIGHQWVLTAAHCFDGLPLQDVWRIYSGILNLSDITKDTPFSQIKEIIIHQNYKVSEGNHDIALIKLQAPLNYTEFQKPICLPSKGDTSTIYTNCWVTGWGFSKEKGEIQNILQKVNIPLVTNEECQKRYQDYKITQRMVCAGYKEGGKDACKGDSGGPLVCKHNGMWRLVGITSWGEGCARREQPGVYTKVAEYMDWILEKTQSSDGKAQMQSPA
Sequence of Human plasma kallikrein (P03952 20-390 partner): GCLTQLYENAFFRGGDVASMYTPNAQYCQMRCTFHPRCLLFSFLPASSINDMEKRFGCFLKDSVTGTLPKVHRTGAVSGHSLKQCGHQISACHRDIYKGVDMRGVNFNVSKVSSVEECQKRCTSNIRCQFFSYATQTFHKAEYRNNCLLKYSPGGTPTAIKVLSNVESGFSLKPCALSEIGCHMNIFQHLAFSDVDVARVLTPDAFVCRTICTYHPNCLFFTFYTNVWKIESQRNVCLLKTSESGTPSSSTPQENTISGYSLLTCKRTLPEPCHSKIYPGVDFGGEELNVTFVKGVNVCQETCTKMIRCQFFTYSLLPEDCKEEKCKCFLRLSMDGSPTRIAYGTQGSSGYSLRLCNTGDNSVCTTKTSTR

IC50 [1] [nM] | clearance [2] [mL/min/kg] | MRT [2] [h] | bioavailability [2] [%] | IC50 [3] [nM] | Structure (SMILES) | aPTT (1.5x) [4] [µM]
4.7 | 5.1 | 2.5 | 34 | 0.36 | O=C(O)c1ccc(NC(=O)[C@H](CC2CCC2)c2ccc(-c3c(C(F)F)ccc(Cl)c3F)c[n+]2[O-])cc1 (mixture of isomers) [Example 4, (S)- and (R)-2-(1-((4-Carboxyphenyl)amino)-3-cyclobutyl-1-oxopropan-2-yl)-5-(3-chloro-6-(difluoromethyl)-2-fluorophenyl)pyridine 1-oxide] | –
79 | 5 | 2.5 | 56 | – | O=C(O)c1ccc(NC(=O)[C@H](CC2CC2)c2ccc(-c3c(OC(F)F)ccc(Cl)c3F)c[n+]2[O-])cc1 (single isomer, unassigned) [Example 2] | 1.16
12 | – | – | – | 2.7 | C[C@]1(O)CC[C@@H](CC(C(=O)Nc2ccc(C(=O)O)cc2)c2ccc(-c3c(C(F)F)ccc(Cl)c3F)c[n+]2[O-])CC1 (single isomer, unassigned) [Example 45, 2-(1-((4-carboxyphenyl)amino)-3-((1s,4s)-4-hydroxy-4-methylcyclohexyl)-1-oxopropan-2-yl)-5-(3-chloro-6-(difluoromethyl)-2-fluorophenyl)pyridine 1-oxide] | 1.16
20 | – | – | – | 0.56 | C[C@]1(O)CC[C@H](CC(C(=O)Nc2ccc(C(=O)O)cc2)c2ccc(-c3c(C(F)F)ccc(Cl)c3F)c[n+]2[O-])CC1 (single isomer, unassigned) [Example 47, 2-(1-((4-carboxyphenyl)amino)-3-((1r,4r)-4-hydroxy-4-methylcyclohexyl)-1-oxopropan-2-yl)-5-(3-chloro-6-(difluoromethyl)-2-fluorophenyl)pyridine 1-oxide] | 0.59
– | 4.3 | 2.6 | 63 | 0.38 | C[C@H]1C[C@@H]1C[C@@H](C(=O)Nc1ccc(C(=O)O)cc1)c1ccc(-c2c(OC(F)F)ccc(Cl)c2F)c[n+]1[O-] (single isomer, unassigned) [Example 55] | 0.53
6.1 | – | – | – | 0.21 | CC1CC1C[C@@H](C(=O)Nc1ccc(C(=O)O)cc1)c1ccc(-c2c(C(F)F)ccc(Cl)c2F)c[n+]1[O-] (single isomer, unassigned) [Example 62] | 0.35
2.9 | – | – | – | 0.19 | CC1CC1C[C@@H](C(=O)Nc1ccc(C(=O)O)cc1)c1ccc(-c2c(C(F)F)ccc(Cl)c2F)c[n+]1[O-] (single isomer, unassigned) [Example 63] | 2.13
19.2 | – | – | – | 1.3 | CC1CC(CC(C(=O)Nc2ccc(C(=O)O)cc2)c2ccc(-c3c(C(F)(F)F)ccc(Cl)c3F)c[n+]2[O-])C1 (single isomer, unassigned) [Example 74, 2-(1-((4-carboxyphenyl)amino)-3-(3-methylcyclobutyl)-1-oxopropan-2-yl)-5-(3-chloro-2-fluoro-6-(trifluoromethyl)phenyl) pyridine 1-oxide] | 2.77
14.5 | 12.1 | 2.3 | 70 | – | O=C(O)c1ccc(NC(=O)C(CC2CC2(F)F)c2ccc(-c3c(C(F)F)ccc(Cl)c3F)c[n+]2[O-])cc1 (single isomer, unassigned) [Example 76, 2-(1-((4-carboxyphenyl)amino)-3-(2,2-difluorocyclopropyl)-1-oxopropan-2-yl)-5-(3-chloro-6-(difluoromethyl)-2-fluorophenyl)pyridine 1-oxide] | 0.72
8.4 | – | – | – | 1.2 | O=C(O)c1ccc(NC(=O)C(CC2CC(F)C2)c2ccc(-c3c(C(F)F)ccc(Cl)c3F)c[n+]2[O-])cc1 (single isomer, unassigned) [Example 81, 2-(1-((4-carboxyphenyl)amino)-3-(3-fluorocyclobutyl)-1-oxopropan-2-yl)-5-(3-chloro-6-(difluoromethyl)-2-fluorophenyl)pyridine-1-oxide] | 0.58
28 | – | – | – | 3.3 | O=C(O)c1ccc(NC(=O)C(CC2CC2F)c2ccc(-c3c(C(F)F)ccc(Cl)c3F)c[n+]2[O-])cc1 (single isomer, unassigned) [Example 93, 2-(1-((4-carboxyphenyl)amino)-3-(2-fluorocyclopropyl)-1-oxopropan-2-yl)-5-(3-chloro-6-(difluoromethyl)-2-fluorophenyl)pyridine-1-oxide] | 0.8
6 | – | – | – | 0.4 | O=C(O)c1ccc(NC(=O)C(CC2CC2CF)c2ccc(-c3c(C(F)F)ccc(Cl)c3F)c[n+]2[O-])cc1 (single isomer, unassigned) [Example 94, 2-(1-((4-carboxyphenyl)amino)-3-(2-(fluoromethyl)cyclopropyl)-1-oxopropan-2-yl)-5-(3-chloro-6-(difluoromethyl)-2-fluorophenyl)pyridine 1-oxide] | 0.4
9.6 | – | – | – | 0.4 | O=C(O)c1ccc(NC(=O)C(CC2CC2CF)c2ccc(-c3c(C(F)F)ccc(Cl)c3F)c[n+]2[O-])cc1 (single isomer, unassigned) [Example 95, 2-(1-((4-carboxyphenyl)amino)-3-(2-(fluoromethyl)cyclopropyl)-1-oxopropan-2-yl)-5-(3-chloro-6-(difluoromethyl)-2-fluorophenyl)pyridine-1-oxide] | 0.43
24.2 | – | – | – | 3.2 | O=C(O)c1ccc(NC(=O)C(CC2CC2C(F)(F)F)c2ccc(-c3c(OC(F)F)ccc(Cl)c3F)c[n+]2[O-])cc1 (single isomer, unassigned) [Example 107, 2-(1-((4-carboxyphenyl)amino)-1-oxo-3-(2-(trifluoromethyl)cyclopropyl)propan-2-yl)-5-(3-chloro-6-(difluoromethoxy)-2-fluorophenyl)pyridine 1-oxide] | 1.74
25.2 | – | – | – | 1.2 | O=C(O)c1ccc(NC(=O)C(CC2CC2C(F)(F)F)c2ccc(-c3c(OC(F)F)ccc(Cl)c3F)c[n+]2[O-])cc1 (single isomer, unassigned) [Example 109, 2-(1-((4-carboxyphenyl)amino)-1-oxo-3-(2-(trifluoromethyl)cyclopropyl)propan-2-yl)-5-(3-chloro-6-(difluoromethoxy)-2-fluorophenyl)pyridine 1-oxide] | 0.76
21.3 | – | – | – | 0.4 | CC1(C)CC1CC(C(=O)Nc1ccc(C(=O)O)cc1)c1ccc(-c2c(OC(F)F)ccc(Cl)c2F)c[n+]1[O-] (single isomer, unassigned) [Example 112, 2-(1-((4-carboxyphenyl)amino)-3-(2,2-dimethylcyclopropyl)-1-oxopropan-2-yl)-5-(3-chloro-6-(difluoromethoxy)-2-fluorophenyl)pyridine 1-oxide] | 2.21
984 | – | – | – | 6.9 | O=C(O)c1ccc(NC(=O)[C@H](CC2CC2)c2ccc(-c3c(OCC4CC4)ccc(Cl)c3F)c[n+]2[O-])cc1 [Example 13, (R)-4-[(2-{5-[3-chloro-6-(cyclopropylmethoxy)-2-fluorophenyl]-1-oxidopyridin-2-yl}-3-cyclopropylpropanoyl)amino] benzoic acid] | 11.1

Structure (SMILES) | IC50 [1] [nM] | clearance [2] [mL/min/kg] | MRT [2] [h] | bioavailability [2] [%] | IC50 [3] [nM] | aPTT (1.5x) [4] [µM]
O=C(O)c1ccc(NC(=O)[C@H](CC2CC2)c2ccc(-c3c(C(F)F)ccc(Cl)c3F)c[n+]2[O-])cc1 (mixture of isomers) [Example 23, (S)- and (R)-2-(1-((4-carboxyphenyl)amino)-3-cyclopropyl-1-oxopropan-2-yl)-5-(3-chloro-6-(difluoromethyl)-2-fluorophenyl)pyridine 1-oxide] | 22 | 1.9 | 2.9 | 89 | 0.9 | –

Reference: patent US10143681B2, “Factor XIa inhibitors” (MERCK SHARP & DOHME CORP., priority 2016, dated 2018)
